Results from US20150266864A1, “HETEROAROMATIC COMPOUNDS, METHOD FOR PREPARING THE COMPOUNDS, PHARMACEUTICAL COMPOSITIONS, USES AND METHOD FOR TREATING ACUTE AND CHRONIC PAIN” (CRISTÁLIA PRODUTOS QUÍMICOS FARMACÊUTICOS LTDA, priority 2012, published 2015).

Experiments:
Swiss mice [1] = test: Hot plate model, assay for acute pain; type: in vivo; conditions: ip, 32.25 μmol/kg, plate 52° C., compared to morphine sulfate at the same dose
Excerpt: The antinociceptive activity (AA) of the present invention selected compounds (C3, C9, C11, C12, C13, C15 and C17) was investigated in hot plate model [Hot Plate Model LE7406, Scientific Inc.] described by Kuraishi et al. [Kuraishi, Y., Harada, Y., Aratani, S., Satoh, M., Takagi, H. Brain Research 1983.273, 245-2523]. This method is valid to evaluate the analgesic activity of substances acting on the central nervous system. Swiss mice weighing 20-25 g were placed on a metal plate heated up to 52° C. The animals were withdrawn from the hot plate at the time they lead their forepaws toward the mouth to lick, being this an indicative of pain second Le Bars et al. [Le Bars, D., Gozariu, M., Cadden, S. W. Animal models of nociception. Pharmacol. Rev. 2001, 53 (4), 597-652]. In this way, it was analyzed how long the animal, treated or not (control) with the analgesic substance, remained on the plate at 52° C.; the longest residence time of an animal on the plate was 35 seconds. This time limit (or cut off) (35 s) was determined by the average of three measurements of latency control values, obtained for each animal multiplied by three, to prevent any kind of tissue injury on the footpad of animals's paw due to long permanence on the heated surface. The protocol consisted in the intraperitoneal (ip) injection of the selected compounds of the present invention at a dose of 32.25 μmol/kg. The antinociceptive activity was evaluated at intervals of 10 minutes until effect completely disappear and, compared to morphine sulfate ([…]) at the same dose of 32.25 μmoles/kg (12.2 mg/kg). The investigated parameter is the latency of reflex to paw withdrawal in response to thermal stimulus. The results were expressed as percentage of AA, which was calculated according to Equation 1 for each experiment.

Swiss-type male mice = test: RotaRod performance test, motor coordination; conditions: for Mice residence time on the rotational cylinder: 9 rpm, cut off 180 s, mean ± SEM
Description: The assessment of motor coordination in mice, by the rotarod performance test, was carried out to detect any possible sedative or muscle relaxant effect caused by the compounds of the present invention, previously tested in acute and neuropathic pain models. This test was carried out according to the method of described by Dunham & Miya and animal motor coordination was evaluated using RotaRod apparatus [Dunham M. S. & Miya. R. T. (1957). J. Amer. Pharmac. Assoc. Sci. Edit. 1957, 46, 208-209].
The RotaRod apparatus (Model 412 EFF, Insight Equipements, Brazil) is a device that measures motor coordination and thus evaluates balance alterations in mice. The apparatus consists of an acrylic box splited into four compartments with a rotational cylinder among them. The cylinder rotates at constant speed driven by a motor and regulated to the constant speed mode of 5-37 revolutions per minute (rpm). In this study the speed was set up to 9 rpm.
To remain on the rotational cylinder, the animal needs to move around, so that the motor coordination can be quantified. The four compartments have drop detection system, through the impact, a microprocessor circuit, for timing the permanence of the animal at the compartment, and for counting the number of falls.
The day before the test, Swiss-type male mice (19-25 g) were placed on the rotational cylinder, set up to the constant speed mode of 9 rpm for adaptation and learning. A group of 10 mice were used for each tested compound, and the total period spent on the rotational cylinder (in seconds) was recorded for a period of 180 seconds (cut off time) and it was accept a maximum of three falls for each animal. Motor coordination was assessed at times 0 (before treatment), 15, 30, 60 and 120 minutes after compounds administration at a dose of 32.25 μmol/kg.
All compounds were administered intraperitoneally (ip).
The Student's t-test was also used to compare means between two experimental groups. Differences were considered significant when p<0.05.

Swiss mice [2] = test: Hot plate model, assay for acute pain; type: in vivo; conditions: ip, 32.25 μmol/kg
rats subjected to SNL [3] = test: Spinal nerve ligation (SNL) L5 model, mechanical allodynia (digital Von Frey); type: in vivo, rat
Description: (§1) This experimental model was proposed by Kim and Chung [Kim, S. H.; Chung, J. M. Pain 1992, 50: 355-363] and consists of ligation of spinal nerves. Male Wistar rats, 180-220 g, were anesthetized with a mixture of ketamine and xylazine (60 mg/kg and 5 mg/kg, respectively) intraperitoneally. After the dorsal region asepsy, an incision was made between L5 and S1. The L6 transverse process was removed for locating the nerves L4 and L5, which were carefully isolated, and tight ligation of the L5 nerve with 6.0 silk thread was made, interrupting flow of the axon of the nerve. After this procedure, para-spinal muscles and skin were sutured, and then a topical antiseptic was applied. False operated animals (sham) were subjected to the same procedure, however the spinal nerve was not ligated.
To evaluate the development of mechanical allodynia, digital analgesimeter (Model EFF301; Insight Equipments), digitalized version coupled to a pointed filament (Von Frey model variant) was used. This test aims to assess changes in tactile sensitivity in response to a mechanical stimulus as a result of a neural damage. The device consisted of a hand-held force transducer fitted with a sensor tip, through which a pressure with increasing strength is applied against the footpad of the animals hindpaw to assess the threshold of paw withdrawal, that is, the digital analgesimeter records the maximal strength, in grams (g), in which the animal withstands until the paw withdrawal reflex.
Animals were placed in individual acrylic boxes and let to acclimate for 30 min before the beginning of the test. After this period, the thresholds of hindpaw withdrawal were determinded. For each hindpaw, five records of the withdrawal thresholds were made, and the average for each hindpaw was defined as the paw withdrawal threshold control.
(§2) The treatment started on the 7th day after surgery. Compounds were diluted in water or DMSO and administered through intraperitoneal route on daily basis, during 7 days, at a dose of […]. The effectiveness of tested compounds was assessed on days 1, 3, and 7 days after treatment, always before the next administration of the compound. Latencies were also assessed on days 1, 3, and 7 after treatment interruption.
(§3) Differences were considered significant when p<0.05.

rats subjected to SNL [4] = test: Spinal nerve ligation (SNL) L5 model, thermal hyperalgesia; type: in vivo, rat
Description: as §1
This method aims to evaluate the animal behavior in response to hyperalgesic phenomenon resulting from the injury induced by the ligament of spinal nerve (L5). In this regard, paw withdrawal in response to thermal stimulus was used, and the thermal stimulus was induced by the radiant heat of an incandescent lamp bulb. The paw withdrawal test was performed as described for the assessment of thermal hyperalgesia in the sciatic nerve chronic constrictive injury model.
as §3, §2

[5] = T 15 min after ip administration, 32.25 μmol/kg
[6] = T 30 min after ip administration, 32.25 μmol/kg (diazepam 2 mg/kg)
[7] = T 60 min after ip administration, 32.25 μmol/kg (diazepam 2 mg/kg)
[8] = T 120 min after ip administration, 32.25 μmol/kg (diazepam 2 mg/kg)
[9] = ip during 7 days, 32.25 μmol/kg

| Structure (SMILES) | antinociceptive activity (AA), hot plate (Swiss mice [1]) | Mice residence time on the rotational cylinder (Swiss-type male mice; [5]) | Mice residence time on the rotational cylinder (Swiss-type male mice; [6]) | Mice residence time on the rotational cylinder (Swiss-type male mice; [7]) | Mice residence time on the rotational cylinder (Swiss-type male mice; [8]) | side effects compared to morphine (Swiss mice [2]) | melting point | animal residence time on the rotational cylinder compared to controls (Swiss-type male mice; 15 minutes after administration, 32.25 μmol/kg) | paw withdrawal threshold, mechanical allodynia (rats subjected to SNL [3]; after 3 days of treatment, 32.25 μmol/kg ip, p<0.05) | reversal of allodynia signs associated with neuropathic pain (rats subjected to SNL [3]; [9]) | reversal of hyperalgesia signs associated with neuropathic pain (rats subjected to SNL [4]; [9]) | increase on the latency vs control post-surgery (rats subjected to SNL [4]; since the 3rd day of treatment, 32.25 μmol/kg ip) |
| --- | --- | --- | --- | --- | --- | --- | --- | --- | --- | --- | --- | --- |
| OC1(c2ccc(Cl)cc2)CCN(CCc2c[nH]nc2-c2ccc(F)cc2)CC1 [C13, 4-(4-chlorophenyl)-1-{2-[3-(4-fluorophenyl)-1H-pyrazol-4-yl]ethyl}piperidin-4-ol] | exhibit antinociceptive activity of intensity and kinetics similar to morphine sulfate | 100.9 s | 95.5 s | 143.7 s | 152.4 s | no side effects of conventional morphine | 142 to 144 °C | – | – | – | – | – |
| CCN1CCN(CCc2c[nH]nc2-c2ccc(F)cc2)CC1.Cl.Cl.Cl.O.O.O [C12, 1-ethyl-4-{2-[3-(4-fluorophenyl)-1H-pyrazol-4-yl]ethyl}piperazine trihydrochloride trihydrate] | exhibit antinociceptive activity of intensity and kinetics similar to morphine sulfate | 179.6 s | 178.6 s | 178.2 s | 179.8 s | no side effects of conventional morphine | – | equal to the time observed for the negative control, and significantly higher than the time observed for the control amitriptyline hydrochloride | significant (p<0.05) paw withdrawal threshold | effective in reverse the hyperalgesia and allodynia signs | effective in reverse the hyperalgesia and allodynia signs | statistically significant increase |
